{"source": "paper PMC6856681", "about": "“Accumulation of Dietary S‐Methyl Cysteine Sulfoxide in Human Prostate Tissue” (Molecular Nutrition & Food Research, 2019)", "key": {"[1]": {"design": "method as in Sivapalan et al.19", "details": "human, ref Sivapalan et al.19, cited from earlier work"}, "[2]": {"details": "human, cited from earlier work"}, "[3]": {"test": "Effect of heating the soup to boiling (microwave or conduction) on metabolite amount", "type": "physicochemical", "details": "heating to boiling by microwave or conduction vs unheated control", "description": "One portion of soup contained 280 ± 8.8 µmoles of glucoraphanin and 1513 ± 36.8 µmoles of SMCSO. The soup was provided frozen and heated up prior to consumption using a standard procedure. Heating either by microwave or conduction had no effect on SMCSO or glucoraphanin concentration (Figure 3).\nFigure 3 The effect of heating soup to boiling on amount of a) glucoraphanin and b) SMCSO compared to unheated control by microwave or conduction heating. Columns are means of two independent samples."}, "[4]": {"test": "SAP study: metabolites in prostate biopsy tissue, peri-prostatic adipose tissue and urine after 4 weeks of broccoli soup supplementation vs control", "type": "in vivo, human", "description": "The SAP study (Figure 2) was a two-arm, parallel un-blinded, dietary-supplementation study, delivering a short, high-dose broccoli soup supplement to a habitual diet to men in the pre-biopsy window before a trans-perineal prostate biopsy (TPB). The primary aim was to determine whether supplementation of a diet with a broccoli soup would enhance the levels of […] and other broccoli-derived metabolites in the prostate of men scheduled for prostate biopsy. Eighteen men were randomized to either continue their normal diet (non-supplementation controls) or receive three portions of a glucoraphanin-rich broccoli soup (300 g) per week for a minimum of 4 weeks manufactured from a broccoli cultivar heterozygous for a Myb28^villosa allele, as previously described.19 On the study day, samples of whole blood, urine (following a digital rectal prostatic massage), prostate, and peri-prostatic adipose tissue were collected. The protocol was approved by the Human Research Governance Committee ([…] 01/2016) at Quadram Institute Bioscience and given full ethical approval by The East of England - Cambridge East Research Ethics Committee (ref: 16/EE/0054). The trial was registered on a publicly accessible database (ClinicalTrials.gov, NCT02821728). A sample of whole blood for genotyping was obtained via the intravenous cannula inserted for use by the anesthetist, thus avoiding additional venipuncture. After prostatic massage, a first-pass urine sample was collected. TPB was performed under general or spinal anesthesia with appropriate antibiotic prophylaxis. Once anesthetized, the patient was positioned supine with their legs elevated in stirrups. A template grid was placed on the skin of the perineum and the prostate visualized by trans-rectal ultrasound scan. […] For the SAP study, eight biopsy cores of prostate tissue were taken from a region of the prostate not known or suspected to contain cancer. Five of these were snap frozen for metabolite analyses, two in RNAlater, and one in methanol. Two additional cores were taken from peri-prostatic adipose tissue and snap frozen. Snap-frozen tissue cores were individually weighed on a high-sensitivity balance and transferred to screw-top tubes. Two hundred microliters of cold Milli- Q® water and […] of autoclaved, acid-washed 710 to 1180 μm glass beads were added to each tube. […] The samples were then placed on a revolving shaker for 15 min at 4 °C. The tubes were centrifuged at 17 000 × g for 10 min at 4 °C and 50 μL of supernatant transferred to a new Eppendorf. 10 μL of 50% trichloroacetic acid (TCA) were added to each sample to precipitate proteins. The centrifugation step was repeated and 50 μL of supernatant transferred to HPLC insert vials for analysis by LC-MS/MS. […] Stock solutions of 1 mg mL^-1 sulfate (Sigma) and SMCSO (LKT laboratories Inc.) were generated by dilution of weighed powder into Milli-Q water. Serial fivefold dilutions were performed in the relevant matrix to produce 6-point calibration curves from 10 to 0 μg mL^-1 on the day of analysis. Sulfate was quantified using an Agilent 6490 triple-quad LC-MS mass spectrometer (Agilent technologies) with Thermo Scientific Hypercarb, Porous Graphitic Carbon (PGC) (3 × 50 mm, 3 μm) column. Two microliters were injected from each sample, with separation by 1% formic acid in Milli-Q water (mobile phase A) and 1% formic acid in methanol (mobile phase B). The gradient started at 8% mobile phase B, increasing to 70% over 5.5 min and returned to 8% mobile phase B for re-equilibration over the last 9.5 min. The column temperature was maintained at 60 °C and the flow rate at 0.3 mL min^-1. […] SMCSO was quantified with the Agilent system described above. […] Snap-frozen tissue cores were individually weighed on a high-sensitivity balance and transferred to screw-top tubes. Two hundred microliters of cold Milli-Q water and […] of autoclaved, acid-washed 710 to 1180 μm glass beads (Sigma) were added to each tube. […]"}, "[5]": {"test": "SMCSO in tissue cores from radical prostatectomies of men not in a dietary study", "type": "in vivo, human", "details": "two cores from each of four glands", "description": "To further explore the presence of un‐metabolized SMCSO in the prostate gland of men who had not been within a dietary study, tissue samples were obtained from patients who had endoscopic extraperitoneal radical prostatectomies. Access to tissue and subsequent analyses were undertaken under ethical approval granted from the Faculty of Medicine and Health Sciences Research Ethics Committee of the University of East Anglia (FMHS 20122014–37). The prostate gland was removed from the abdominal cavity immediately after resection and rapidly biopsied after extraction to avoid ischemic artifacts using a standard core biopsy instrument, as previously described.23 The extracted whole prostatectomy specimen was placed on a surgical table, the apex and base of the gland were identified, and the prostate cut transversely (axial section) half way along the gland. With the use of the midline and the urethra as guides, biopsies were taken from the peripheral zones avoiding obvious tumor sites where feasible. Two cores were taken from each of four glands for analyses. The tissue was snap frozen and analyzed for the presence of SMCSO as described above."}, "clinical": {"test": "clinical", "details": "both, human, in vivo", "quoted_text": "(§1) SMCSO was quantified with the Agilent system described above. Samples were injected at 2 µL eluted at a flow rate of 0.3 mL min^–1 on an Agilent SB‐AQ 1.8 µM (100 × 21 mm) C18 column. Separation was carried out using 10 mM ammonium acetate + 0.05% hetafluorobutyric acid in Milli‐Q water (mobile phase A) and 10 mM ammonium acetate + 0.05% hetafluorobutyric acid in 90% methanol (mobile phase B). The gradient started at 2% mobile phase B, increasing over 2 min to 5% B and returning to 2% mobile phase B for re‐equilibration over the last 2 min. The column was set at 20 °C due to the instability of SMCSO at high temperatures. The LC eluent flow was sprayed into the mass spectrometer interface without splitting. SMCSO ion was monitored by MS in MRM mode (m/z = 87.9) in positive polarity with ESI. The source parameters were: gas temperature 200 °C, gas flow 16 L min^–1, sheath gas temperature 300 °C with a sheath gas flow of 11 L min^–1, a nebulizer pressure of 50 psi, and capillary voltage 3500 V. Quantification was performed by peak area against the matrix‐matched standard curve, and identification by retention time and product ions.\n(§2) To quantify the amount of SMCSO in plasma and urine from a single portion of soup, samples were analyzed from a previously described acute intervention study (NCT02300324).24 In this study, ten volunteers consumed a single portion of the identical soup to that used in the SAP study as described above as part of a three‐phase cross‐over study. Briefly, men and woman aged 18–65 years with a BMI between 19.5 and 35 kg m^–2 were enrolled into a dietary intervention trial undertaken at the Human Nutrition Unit of the Quadram Institute Bioscience Subjects were recruited on the basis of fasted (≥8 h) screening blood/urine samples and a completed health questionnaire. The study involved a 48‐h pre‐intervention diet restriction, a study day involving a 9‐h stay at the HNU and a sample collection the following morning (24 h post soup consumption) followed by a washout period of 2 weeks. […]"}, "[6]": {"details": "both, human, in vivo", "quoted_text": "as §1, §2"}, "[7]": {"design": "method as in PMID 14768973", "details": "cited from earlier work"}, "[8]": {"test": "Feeding of 35S-labeled SMCSO to human volunteers, recovery of label in urine (Waring et al.)", "type": "in vivo", "description": "Previously, there has been only a single study of the metabolism of SMCSO in humans. Waring and colleagues describe the feeding of ^35S‐labeled SMCSO to human volunteers, and the recovery of 96% of the label in urine after 14 days, of which 40% was inorganic sulfate, indicating almost complete absorption of SMCSO (and/or its colonic microbiological derivatives).18 How SMCSO was metabolized is unknown, but it is likely that it was due to initial cysteine‐S‐conjugate β lyase activity by gut microbiome, as opposed to mammalian enzyme activity."}, "[9]": {"details": "read-out: Plasma C max; following a portion of cruciferous vegetables, transient; cited from earlier work"}, "[10]": {"details": "human prostate biopsy cores, LC–MS/MS, both study arms"}}, "note": "Read-outs that look alike come from different tables or passages of the source.", "data": [{"smiles": "C[S@@+]([O-])CCCC/C(=N/OS(=O)(=O)O)S[C@@H]1O[C@H](CO)[C@@H](O)[C@H](O)[C@H]1O", "note": "[Glucoraphanin, 4‐Methylsulphinylbutyl glucosinolate]", "values": [{"measurement": "Plasma C24h", "setting": "[1]; 24 h after single 300 mL portion of broccoli soup", "result": "<10", "unit": "nM"}, {"measurement": "Plasma AUC", "setting": "[1]; single 300 mL portion of broccoli soup (280 µmoles glucoraphanin)", "result": "0.15 ± 0.08", "unit": "µM·h"}, {"measurement": "Cmax", "setting": "[1]; single 300 mL portion of broccoli soup (280 µmoles glucoraphanin), read-out: Plasma Cmax", "result": "30 ± 10", "unit": "nM"}, {"measurement": "Plasma Tmax", "setting": "[1]; single 300 mL portion of broccoli soup", "result": "2.23 ± 0.09", "unit": "h"}, {"measurement": "Urine: percentage excreted after 24 h", "setting": "[2]; percentage of consumed glucoraphanin excreted intact, ref Sivapalan et al.19", "result": "0.51 ± 0.24", "unit": "%"}, {"measurement": "Urine: total excreted in 24 h", "setting": "[2]; single 300 mL portion of broccoli soup (280 µmoles glucoraphanin), ref Sivapalan et al.19", "result": "1.44 ± 0.66", "unit": "µmol"}, {"measurement": "Conversion of glucoraphanin to sulforaphane", "setting": "[2]; value assumed for the dose-equivalent calculation", "result": 8, "unit": "%"}, {"measurement": "Effect of heating on concentration in the soup", "setting": "[3]", "result": "no effect"}, {"measurement": "Detection in prostate tissue", "setting": "[4]; [10]", "result": "No glucoraphanin or sulforaphane (and its thiol conjugates) was detected"}]}, {"smiles": "C[S@+]([O-])C[C@H](N)C(=O)O", "note": "[SMCSO, (+)‐S‐methyl cysteine sulfoxide]", "values": [{"measurement": "Detection of SMCSO in radical prostatectomy tissue samples", "setting": "[5]", "result": "detected in seven of the eight tissue samples"}, {"measurement": "concentration at 24 h", "setting": "clinical", "result": "4660 ± 1520", "unit": "nM"}, {"measurement": "Tmax", "setting": "clinical; Plasma Tmax", "result": 1.4, "unit": "h"}, {"measurement": "Plasma concentration of SMCSO relative to that of glucoraphanin or sulforaphane", "setting": "[6]", "result": "about 1000 fold"}, {"measurement": "Share of recovered urinary label that was inorganic sulfate", "setting": "[7]; human volunteers fed 35S-labeled SMCSO, 14 days", "result": 40, "unit": "%"}, {"measurement": "Recovery of 35S label in urine", "setting": "[7]; human volunteers fed 35S-labeled SMCSO, after 14 days", "result": 96, "unit": "%"}, {"measurement": "Proportion of SMCSO absorbed (as un-metabolized SMCSO or unknown derivatives)", "setting": "[7]; human", "result": 97, "unit": "%"}, {"measurement": "Effect of heating on concentration in the soup", "setting": "[3]", "result": "no effect"}, {"measurement": "Proportion of SMCSO absorbed from the GI tract", "setting": "[8]; concluding statement", "result": "~100", "unit": "%"}, {"measurement": "Proportion of consumed SMCSO that is metabolized in vivo", "setting": "[8]; inferred from this study together with Waring et al. 18", "result": "about 90%"}, {"measurement": "Detection in prostate tissue", "setting": "[4]; in vivo", "result": "present"}, {"measurement": "SMCSO level in peri-prostatic adipose tissue", "setting": "[4]; in vivo", "result": "higher levels than in prostate tissue but without significant difference between the two groups"}, {"measurement": "SMCSO level in urine, supplement group vs control", "setting": "[4]; in vivo", "result": "higher in urine in the supplement group compared to the control"}]}, {"smiles": "C[S+]([O-])CCCCN=C=S", "note": "(centres unmarked) [Sulforaphane, sulforaphane]", "values": [{"measurement": "Cmax", "setting": "[9]", "result": "< 1000", "unit": "nM"}, {"measurement": "Detection in prostate tissue", "setting": "[4]; [10]", "result": "No glucoraphanin or sulforaphane (and its thiol conjugates) was detected"}, {"measurement": "Sulforaphane in urine", "setting": "[4]; human, participants in both arms", "result": "detected in urine from participants in both arms of the study"}]}, {"smiles": "O=S(=O)(O)O", "note": "[sulfate]", "values": [{"measurement": "Sulfate level in prostate tissue between the two dietary arms", "setting": "[4]; human prostate biopsy cores", "result": "no significant difference"}]}]}
